From patent US20250074910A1, “MENIN INHIBITOR AND USE THEREOF” (HITGEN INC., priority 2021, published 2025)
pIC50: −log10 of the molar value.

Columns and labels:
[1] = target: Menin/MLL-4-43 peptide interaction (Homo sapiens (Human), UniProt O00255); experiment: Menin-MLL interaction inhibitory activity assay (fluorescence polarization competition); format: binding; conditions: FITC-MLL4-43-peptide, Menin recombinant protein
Procedure: Test Example 1: Menin-MLL Interaction Inhibitory Activity Assay
The inhibition of Menin/MLL-4-43 peptide interaction by small molecule inhibitors was quantitatively detected by fluorescence polarization competition assay. The experiment was performed in a 384-well plate (Corning, Cat #3575) using a reaction buffer consisting of 50 mM Tris, pH 7.5, 50 mM NaCl, and 1 mM DTT. A 40 μL reaction system included 10 μL of 8 nM Menin recombinant protein and 10 μL of the test compound at different concentrations. The compound was pre-incubated with Menin protein for 15 min, and then 20 μL of 10 nM FITC-MLL4-43-peptide was added. After incubation on a shaker at 25° C. for 60 min, the fluorescence polarization signal (FP 485 520 520) was read using BMG PHERAStar detection. The experimental data was analyzed and processed by GraphPad Prism 6 software to obtain the IC50 value. The control compound 1 was prepared by referring to the method of Example 64 in WO2017214367.

OCI-AML3 = experiment: Cell proliferation inhibition (CellTiter-Glo), OCI-AML3 (NPM1 mutation); format: cell-based; conditions: OCI-AML3 cells
Procedure: (§1) Test Example 2: Test of the Inhibitory Ability of Menin-MLL Interaction Inhibitors on Cell Proliferation
(§2) The inhibitory ability of the compounds of the present disclosure on the proliferation of tumor cell lines (including cell lines containing MLL fusion protein such as MV4-11, MOLM-13, THP-1 and NOMO-1, control cell lines without MLL fusion protein such as HL-60, K562 and MOLM-16, and cell lines containing NPM1 mutation such as OCI-AML3) was evaluated by using the cell viability analysis method. The cells were plated in 96-well plates at a certain concentration (e.g., 5,000-20,000 cells/well), and then an equal volume of culture medium containing 2 times the final concentration of the test compound (the final concentration ranging 10 from 1 nM to 10 μM) was added. The plates were placed in an incubator and cultured at 37° C. and 5% CO2 for 72-168 h. Before the test, an equal volume of CellTiter-Glo® Luminescent reagent was added, and the plate was incubated at room temperature for 10 min before detection using an ELISA reader (BMG LABTECH). The data were analyzed using GraphPad Prism software to obtain the IC50 value and compound fitting curve. The control compound 1 was prepared by referring to the method of Example 64 in WO2017214367.

MV4-11 = experiment: Cell proliferation inhibition (CellTiter-Glo), MV4-11; format: cell-based; conditions: MV4-11 cells
Procedure: as §1, §2

MOLM-13 = experiment: Cell proliferation inhibition (CellTiter-Glo), MOLM-13; format: cell-based; conditions: MOLM-13 cells
Procedure: as §1, §2

Chain of Menin/MLL-4-43 peptide interaction (O00255 whole entry, species assumed): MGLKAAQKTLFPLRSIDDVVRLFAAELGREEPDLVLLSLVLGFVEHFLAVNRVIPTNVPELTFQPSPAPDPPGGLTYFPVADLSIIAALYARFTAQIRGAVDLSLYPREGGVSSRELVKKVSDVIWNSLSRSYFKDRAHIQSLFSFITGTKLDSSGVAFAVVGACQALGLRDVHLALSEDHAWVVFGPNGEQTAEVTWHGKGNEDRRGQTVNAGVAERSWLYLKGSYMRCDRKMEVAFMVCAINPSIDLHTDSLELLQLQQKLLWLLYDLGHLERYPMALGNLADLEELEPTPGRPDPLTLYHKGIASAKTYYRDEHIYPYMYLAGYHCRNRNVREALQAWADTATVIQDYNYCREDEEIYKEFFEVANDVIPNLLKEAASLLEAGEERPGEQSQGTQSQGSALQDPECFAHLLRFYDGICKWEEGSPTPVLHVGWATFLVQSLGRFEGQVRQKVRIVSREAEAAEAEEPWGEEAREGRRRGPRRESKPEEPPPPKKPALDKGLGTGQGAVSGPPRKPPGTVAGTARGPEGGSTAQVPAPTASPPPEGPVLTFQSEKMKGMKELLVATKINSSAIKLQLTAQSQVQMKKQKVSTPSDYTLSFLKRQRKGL

Compound	pIC50 [1]	GI50 (OCI-AML3; Homo sapiens, OCI-AML-3, 168 h) [nM]	GI50 (MV4-11; Homo sapiens, MV4-11, 72 h) [nM]	GI50 (MOLM-13; Homo sapiens, MOLM-13, 168 h) [nM]	GI50 (OCI-AML3; 168 h) [nM]	GI50 (MV4-11; 72 h) [nM]	GI50 (MOLM-13; 168 h) [nM]
CC(C)N(C(=O)c1cc(F)ccc1Oc1nncnc1N1CC2(CCN(C[C@H]3CC[C@]4(CC3)CC(C)(C)C(=O)N4)CC2)C1)C1CC1 [Example 30]	7.48	52	35.2	197			
[2H]C([2H])([2H])C1C[C@]2(CC[C@@H](CN3CCC4(CC3)CN(c3ncnnc3Oc3ccc(F)cc3C(=O)N(C(C)C)C(C)C)C4)CC2)NC1=O (single isomer, unassigned) [Example 43-2]	7.31				80.6	90	137
CC(C)N(C(=O)c1cc(F)ccc1Oc1cncnc1N1CC2(CCN(CC3CC4CCC3CC43CCC(=O)N3)CC2)C1)C(C)C (single isomer, unassigned) [Example 13-1]	7.67		82.6				
CCN(C(=O)c1cc(F)ccc1Oc1nncnc1N1CC2(CCN(C[C@H]3CC[C@]4(CC3)CC(C)C(=O)N4)CC2)C1)C(C)C (single isomer, unassigned) [Example 40-1]	7.83	199		122		41.2	
CC(C)N(C(=O)c1cc(F)ccc1Oc1cncnc1N1CC2(CCN(CC3CC4CCC3CC43CCC(=O)N3)CC2)C1)C(C)C (single isomer, unassigned) [Example 13-2b]	6.85					153	
CCN(C(=O)c1cc(F)ccc1Oc1nncnc1N1CC2(CCN(C[C@H]3CC[C@]4(CC3)CC(C)C(=O)N4)CC2)C1)C(C)C (single isomer, unassigned) [Example 40-2]	7.46					82.8	
CCN(C(=O)c1cc(F)ccc1Oc1cncnc1N1CC2(CCN(C[C@H]3CC[C@]4(CC3)C[C@@H](COC)C(=O)N4)CC2)C1)C(C)C [Example 35]	8.44		11.7				
CC(C)N(C(=O)c1cc(F)ccc1Oc1cncnc1N1CC2(CCN(CC3CC4CCC3CC43COC(=O)N3)CC2)C1)C(C)C (single isomer, unassigned) [Example 51-2]	7.32				35.3	18.8	93.3
CCN(C(=O)c1cc(F)ccc1Oc1cncnc1N1CC2(CCN(CC3CC4CCC3CC43CCC(=O)N3)CC2)C1)C(C)C (single isomer, unassigned) [Example 3]	7.62		94.7				
CCN(C(=O)c1cc(F)ccc1Oc1cncnc1N1CC2(CCN(CC3CC4CCC3CC43COC(=O)N3)CC2)C1)C(C)C (single isomer, unassigned) [Example 50-2a]	7.68				56.4	20.5	125
CC1C[C@]2(CC[C@@H](CN3CCC4(CC3)CN(c3ncncc3Oc3ccc(F)cc3C(=O)N(C(C)C)C(C)C)C4)CC2)NC1=O (some centres unmarked) [Example 39]	7.62		20				
CC(C)N(C(=O)c1cc(F)ccc1Oc1cncnc1N1CC2(CCN(CC3CC4CCC3CC43COC(=O)N3)CC2)C1)C(C)C (single isomer, unassigned) [Example 51-2a]	7.15				31.5	11.7	
CCN(C(=O)c1cc(F)ccc1Oc1cncnc1N1CC2(CCN(CC3CC4CCC3CC43COC(=O)N3)CC2)C1)C(C)C (single isomer, unassigned) [Example 50-1]	7.44		74.4				
CCN(C(=O)c1cc(F)ccc1Oc1nncnc1N1CC2(CCN(C[C@H]3CC[C@]4(CC3)CC(=C(C)C)C(=O)N4)CC2)C1)C(C)C [Example 60]	7.55	92.4	35	175			
COC[C@@H]1C[C@]2(CC[C@@H](CN3CCC4(CC3)CN(c3ncncc3Oc3ccc(F)cc3C(=O)N(C(C)C)C(C)C)C4)CC2)NC1=O [Example 36]	8.36		13.1				
CCN(C(=O)c1cc(F)ccc1Oc1cncnc1N1CC2(CCN(CC3CC4CCC3CC43CCC(=O)N3)CC2)C1)C(C)C (single isomer, unassigned) [Example 4-1]	7.92					55	
CC(C)N(C(=O)c1cc(F)ccc1Oc1nncnc1N1CC2(CCN(C[C@H]3CC[C@]4(CC3)CC(C)(C)C(=O)N4)CC2)C1)C1CCC1 [Example 32]	7.41	63.6	17.8	179			

Compound	pIC50 [1]	GI50 (OCI-AML3; Homo sapiens, OCI-AML-3, 168 h) [nM]	GI50 (MV4-11; Homo sapiens, MV4-11, 72 h) [nM]	GI50 (MOLM-13; Homo sapiens, MOLM-13, 168 h) [nM]	GI50 (OCI-AML3; 168 h) [nM]	GI50 (MV4-11; 72 h) [nM]	GI50 (MOLM-13; 168 h) [nM]
CC(C)N(C(=O)c1cc(F)ccc1Oc1nncnc1N1CC2(CCN(C[C@H]3CC[C@]4(CC3)CC(C)(C)C(=O)N4)CC2)C1)C(C)C [Example 27]	7.79	32.1	13				
CCN(C(=O)c1cc(F)ccc1Oc1cncnc1N1CC2(CCN(CC3CC4CCC3CC43CCC(=O)N3)CC2)C1)C(C)C (single isomer, unassigned) [Example 3-1]	7.54	66.5		47.4		324	
CCN(C(=O)c1cc(F)ccc1Oc1cncnc1N1CC2(CCN(C[C@H]3CC[C@]4(CC3)CC(C)(C)C(=O)N4)CC2)C1)C(C)C [Example 21]	8.01	39.8	13.1				
CC(C)=C1C[C@]2(CC[C@@H](CN3CCC4(CC3)CN(c3ncnnc3Oc3ccc(F)cc3C(=O)N(C(C)C)C(C)C)C4)CC2)NC1=O [Example 61]	7.59	72.1	23	108			
CCN(C(=O)c1cc(F)ccc1Oc1cncnc1N1CC2(CCN(CC3CC4CCC3CC43CCC(=O)N3)CC2)C1)C(C)C (single isomer, unassigned) [Example 3-2]	6.95					86.1	
CC(C)N(C(=O)c1cc(F)ccc1Oc1cncnc1N1CC2(CCN(CC3CC4CCC3CC43COC(=O)N3)CC2)C1)C(C)C (single isomer, unassigned) [Example 51-1]	7.45	68.5	21.1	101			
CCN(C(=O)c1cc(F)ccc1Oc1cncnc1N1CC2(CCN(CC3CC4CCC3CC43COC(=O)N3)CC2)C1)C(C)C (single isomer, unassigned) [Example 50-1b]	7.66		26.4	88.9	61.7		
CC(C)N(C(=O)c1cc(F)ccc1Oc1nncnc1N1CC2(CCN(CC3CC4CCC3CC43COC(=O)N3)CC2)C1)C(C)C (single isomer, unassigned) [Example 52-2b]	6.70				50.6		
[2H]C([2H])([2H])C1(C([2H])([2H])[2H])C[C@]2(CC[C@@H](CN3CCC4(CC3)CN(c3ncnnc3Oc3ccc(F)cc3C(=O)N(CC)C(C)C)C4)CC2)NC1=O [Example 33]	8.08		20.5				
CC(C)N(C(=O)c1cc(F)ccc1Oc1nncnc1N1CC2(CCN(CC3CCC4(CC3)CC3(CC3)C(=O)N4)CC2)C1)C(C)C (single isomer, unassigned) [Example 44-2]	8.10				26.4	9.7	30.4
CCN(C(=O)c1cc(F)ccc1Oc1cncnc1N1CC2(CCN(CC3CC4CCC3CC43COC(=O)N3)CC2)C1)C(C)C (single isomer, unassigned) [Example 50-2b]	7.21				119	26.4	93.3
CC(C)N(C(=O)c1cc(F)ccc1Oc1cncnc1N1CC2(CCN(CC3CC4CCC3CC43COC(=O)N3)CC2)C1)C(C)C (single isomer, unassigned) [Example 51-1b]	7.33	20.3	16.1				
CC(C)N(C(=O)c1cc(F)ccc1Oc1nncnc1N1CC2(CCN(C[C@H]3CC[C@]4(CC3)CC(C(C)(C)O)C(=O)N4)CC2)C1)C(C)C (some centres unmarked) [Example 59-1]	8.60	34.7	15.3	55.9			
CC(C)N(C(=O)c1cc(F)ccc1Oc1nncnc1N1CC2(CCN(CC3CC4CCC3CC43COC(=O)N3)CC2)C1)C(C)C (single isomer, unassigned) [Example 52-2a]	7.09				47.9	43.6	
CC(C)N(C(=O)c1cc(F)ccc1Oc1cncnc1N1CC2(CCN(C[C@H]3CC[C@]4(CC3)CC(C)(C)C(=O)N4)CC2)C1)C(C)C [Example 22]	7.78	24	11.3				
CC(C)N(C(=O)c1cc(F)ccc1Oc1nncnc1N1CC2(CCN(CC3CC4CCC3CC43COC(=O)N3)CC2)C1)C(C)C (single isomer, unassigned) [Example 52-1b]	7.41	40				11.9	
